Laboratory results: PubChem BioAssay (NCI)
Several values for one entry are separate records, joined by “and”; a condition that tells them apart may be missing. Equal values may be shown once.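 These data come from cells grown in 96-well plates and exposed to compound for 48 hours at five concentrations. At the GI50, growth is halved. TGI denotes the concentration required for complete inhibition of growth.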

Tested on: UACC-62 melanoma
Experiment: DTP human tumour cell line panel, 48 h

SMILES | GI50 | TGI
Cn1nccc1Nc1nccc(-c2ccn([C@H](CO)c3ccc(Cl)c(F)c3)c(=O)c2)n1 | 0.0922 µM | > 59.3 µM
CCOC(=O)c1nc(C)oc1C(F)(F)F |  | > 100 µM
N#CC1c2ccccc2C=CN1C(=O)CCCl (stereo not drawn) | 14.9 µM | 29.7 µM
O=C1/C(=C\c2ccccc2)CN(C(=O)CCN2CCCCC2)C/C1=C/c1ccccc1 |  | 3.08 µM
O=C1NC(=N[C@@H](CO)c2ccccc2)S/C1=C\c1ccc2ncccc2c1 | 10.4 µM | > 25 µM
Cc1ccc(S(=O)(=O)OCC/C(=C\[Si](C)(C)C)c2ccccc2)cc1 |  | > 100 µM
O=C1/C(=C/c2ccc(Cl)c(Cl)c2)CN(C(=O)CCN2CCC(=NO)CC2)C/C1=C\c1ccc(Cl)c(Cl)c1 | 0.664 µM | 1.87 µM
CCNc1nc(O)c(/C=C2\C=Nc3ncccc32)s1 | 3.01 µM | 9.11 µM
CCc1ccccc1NC(=O)c1cccc([N+](=O)[O-])c1O |  | > 100 µM
O=C(/C=C/C12c3ccccc3C(c3ccccc31)C1C(=O)NC(=O)C12)c1ccccn1 (stereo not drawn) | 1.62 µM | 3.1 µM
CC1=C(C(=O)Nc2ccccc2)C(c2ccc(N(C)C)cc2)C(C(=O)Nc2ccccc2)=C(C)N1 |  | 23.9 µM

Tested on: HCT-15 colon
Experiment: DTP human tumour cell line panel, 48 h

SMILES | GI50 | TGI
c1ccc(-c2[nH]ncc2-c2ccnc(-c3ccc(OCCn4ccnc4)cc3)c2)nc1 | 22 µM | > 25 µM
O=C1c2cccc(Oc3ccccc3)c2C(=O)c2cccc(Oc3ccccc3)c21 | > 100 µM | > 100 µM
O=C(OCc1ccc2c(Br)cc(Br)c(O)c2n1)c1cc2ccccc2[nH]1 | 0.314 µM | 1.03 µM
CC(C)(CO)CNC(=O)c1ccc2[nH]c(O)c(N=Nc3ccc(S(N)(=O)=O)cc3)c2c1 | > 25 µM | > 25 µM
Cc1cc(O)c2c(c1)C(=O)C=CC2=O | 7.78 µM and 3.53 µM | 24.9 µM and 9.83 µM
CC1(C)N=C(N)N=C(N)N1c1ccc(CCC(=O)Nc2ccc(S(=O)(=O)F)cc2)cc1 | 3.48 µM | > 100 µM
N#CC1(c2ccc(NC(=O)c3cccnc3NCc3ccncc3)cc2)CCCC1 | 8.12 µM | 39.3 µM
CCN1C(=S)N(CC)C2C1NC(=S)N2/N=C/C=C/c1ccccc1OC (stereo not drawn) | 0.267 µM | > 100 µM
Cn1nccc1Nc1nccc(-c2ccn([C@H](CO)c3ccc(Cl)c(F)c3)c(=O)c2)n1 | 21.3 µM | > 100 µM
CCOC(=O)c1nc(C)oc1C(F)(F)F |  | > 100 µM
N#CC1c2ccccc2C=CN1C(=O)CCCl (stereo not drawn) | 2.87 µM | 9.55 µM
O=C1/C(=C\c2ccccc2)CN(C(=O)CCN2CCCCC2)C/C1=C/c1ccccc1 |  | 4.12 µM
O=C1NC(=N[C@@H](CO)c2ccccc2)S/C1=C\c1ccc2ncccc2c1 | 6.19 µM | > 25 µM
Cc1ccc(S(=O)(=O)OCC/C(=C\[Si](C)(C)C)c2ccccc2)cc1 |  | > 100 µM
O=C1/C(=C/c2ccc(Cl)c(Cl)c2)CN(C(=O)CCN2CCC(=NO)CC2)C/C1=C\c1ccc(Cl)c(Cl)c1 | 0.325 µM | 1.16 µM
CCNc1nc(O)c(/C=C2\C=Nc3ncccc32)s1 | 5.18 µM | > 100 µM
CCc1ccccc1NC(=O)c1cccc([N+](=O)[O-])c1O |  | > 100 µM
O=C(/C=C/C12c3ccccc3C(c3ccccc31)C1C(=O)NC(=O)C12)c1ccccn1 (stereo not drawn) | 1.17 µM | 3.35 µM
CC1=C(C(=O)Nc2ccccc2)C(c2ccc(N(C)C)cc2)C(C(=O)Nc2ccccc2)=C(C)N1 |  | 15.3 µM

Tested on: HL-60(TB) leukemia
Experiment: DTP human tumour cell line panel, 48 h

SMILES | GI50 | TGI
c1ccc(-c2[nH]ncc2-c2ccnc(-c3ccc(OCCn4ccnc4)cc3)c2)nc1 | > 25 µM | > 25 µM
O=C1c2cccc(Oc3ccccc3)c2C(=O)c2cccc(Oc3ccccc3)c21 | > 100 µM | > 100 µM
O=C(OCc1ccc2c(Br)cc(Br)c(O)c2n1)c1cc2ccccc2[nH]1 | 0.615 µM | 2.94 µM
CC(C)(CO)CNC(=O)c1ccc2[nH]c(O)c(N=Nc3ccc(S(N)(=O)=O)cc3)c2c1 | > 25 µM | > 25 µM
Cc1cc(O)c2c(c1)C(=O)C=CC2=O | 0.0336 µM and 0.31 µM | 0.202 µM and 1.89 µM
CC1(C)N=C(N)N=C(N)N1c1ccc(CCC(=O)Nc2ccc(S(=O)(=O)F)cc2)cc1 | 0.854 µM | > 100 µM
N#CC1(c2ccc(NC(=O)c3cccnc3NCc3ccncc3)cc2)CCCC1 | 11.9 µM | 45.9 µM
CCN1C(=S)N(CC)C2C1NC(=S)N2/N=C/C=C/c1ccccc1OC (stereo not drawn) | 0.229 µM | 0.597 µM
Cn1nccc1Nc1nccc(-c2ccn([C@H](CO)c3ccc(Cl)c(F)c3)c(=O)c2)n1 | 1.89 µM | 30.4 µM
CCOC(=O)c1nc(C)oc1C(F)(F)F |  | > 100 µM
N#CC1c2ccccc2C=CN1C(=O)CCCl (stereo not drawn) | 9.09 µM | 40.8 µM
O=C1/C(=C\c2ccccc2)CN(C(=O)CCN2CCCCC2)C/C1=C/c1ccccc1 |  | 1.17 µM
O=C1NC(=N[C@@H](CO)c2ccccc2)S/C1=C\c1ccc2ncccc2c1 | 6.07 µM | 19.4 µM
Cc1ccc(S(=O)(=O)OCC/C(=C\[Si](C)(C)C)c2ccccc2)cc1 |  | > 100 µM
O=C1/C(=C/c2ccc(Cl)c(Cl)c2)CN(C(=O)CCN2CCC(=NO)CC2)C/C1=C\c1ccc(Cl)c(Cl)c1 | 1.48 µM | 4.37 µM
CCNc1nc(O)c(/C=C2\C=Nc3ncccc32)s1 | 2.53 µM | 10.2 µM
CCc1ccccc1NC(=O)c1cccc([N+](=O)[O-])c1O |  | > 100 µM
O=C(/C=C/C12c3ccccc3C(c3ccccc31)C1C(=O)NC(=O)C12)c1ccccn1 (stereo not drawn) | 1.02 µM | 3.41 µM
CC1=C(C(=O)Nc2ccccc2)C(c2ccc(N(C)C)cc2)C(C(=O)Nc2ccccc2)=C(C)N1 |  | 49.4 µM
